From US20240197869A1, “HYPERACTIVATORS OF MAMMALIAN DENDRITIC CELLS” (Corner Therapeutics, Inc., priority 2021, published 2024)

Key:
Format in all cases: cell-based
[1] = test system: human PBMCs; assay: Viability of human PBMCs (CellTiter-Glo); details: 2 days post-activation; lipids combined with R848
Method: Isolation of PBMCs from Whole Blood. PBMCs were isolated from whole blood using density gradient centrifugation with Ficoll-Paque PLUS (Cytivia). Whole blood was diluted 1:1 with PBS, layered on top of Ficoll-Paque PLUS and centrifuged at 1000×g for 30 minutes at room temperature. PBMCs were collected, washed twice in PBS, and incubated with Ack lysis buffer (Lonza) to remove any remaining red blood cells.
Cell Culture and Stimulation. […] Cells were plated at 1×10^5 (canine cells) or 1×10^6 (human cells) per well in 96-well flat bottom tissue culture plates. Lyophilized Vaccigrade R848 (Invivogen) was reconstituted and diluted according to manufacturer's recommendations and added to cells at a final concentration of 1 μg/mL.
Quantification of Cell Viability.

[2] = test system: human moDC; assay: IL-1β secretion by human moDC with surfactant formulations of 22:0 Lyso PC
Method: Formulation of 22:0 Lyso PC with poloxamers. […] 22:0 Lyso PC was resuspended in the surfactant solution and agitated at 4° C. for an hour. Solutions were then brought to room temperature to form micelles. Using 10× concentrated PBS, salts were added to the solution to stabilize molecular interactions and provide physiologically relevant osmolarity. Lipid solutions were either left unfiltered or filtered through a pore size of 0.45 um to remove insoluble lipid flakes. Lipids were further diluted and added onto human moDC cell cultures along with 1 ug/mL R848. Targeted lipid concentrations were based on the scenario where the lipid is fully bio-available prior to filtration. However, filtration of insoluble lipid reduces the bio-available supply of lipid. Thus, IL-1beta as a measure of hyperactivity can be used as an indicator of 22:0 Lyso PC incorporation into micelles and thus into solution. One day after hyperactivation, cell culture supernatants are collected to measure cytokine secretion, and cells are used to measure viability via Cell Titer-Glo.
Salts are added to the solution to stabilize the molecular interactions and bring the solution to a physiologically relevant osmolarity. The solutions are then either left unfiltered or filtered through a pore size of 0.45 um to remove insoluble lipid flakes or particle aggregates. Lipids are then added to human moDC cultures with 1 ug/mL R848. One day after hyperactivation, cell culture supernatants were collected to measure cytokine secretion, and cells were used to measure cell viability.
Data from these studies in poloxamer formulation are shown from one human moDC donor sample. Individual data points represent the mean of triplicates.

[3] = test system: human naïve CD4+ T cells; assay: Mixed lymphocyte reaction: polarization of naïve CD4 T cells (flow cytometry)
Method: Mixed lymphocyte reaction. Human monocytes were isolated from leukopheresis products using Miltenyi StraightFrom LeukoPak CD14 microbeads as directed by manufacturer. To isolate naïve CD4 T cells, whole blood was diluted with an equal volume of PBS. Diluted blood was layered on top of Ficoll-Paque PLUS solution and spun at 1000 rcf for 20 minutes at room temperature with no brakes. Buffy coat layer was collected, washed, and counted. Miltenyi human naïve CD4 T cell microbead isolation kits were used to isolate cells of interest from the PBMC according to manufacturer's instructions. Collected cells were cryogenically stored in 90% FBS and 10% DMSO.
Monocytes were differentiated into moDC. moDC were counted and plated in U-bottom plates at 2×10^4 cells/well and treated with hyperactivating stimuli or control conditions. After one day of culture, 1×10^5 cells/well naïve CD4 T cells from a different (allogeneic) human donor were thawed and added to the cultures with 100 ng/mL IL-2. Cells were cocultured for 5 days with an IL-2 feed on the third day of coculture. After 5 days, cells were reactivated for four hours using Leukocyte Activation Cocktail with BD GolgiPlug (BD Biosciences). Cells were stained to determine the resulting polarization of activated T cells via flow cytometry. Intracellular staining targets required the use of BD Biosciences Transcription Factor Buffer set to fix and permeabilize cells prior to the intracellular staining step.
Ten moDC donor samples were tested in MLR assay. Staining results were analyzed using FlowJo software, and consistent gating strategies were applied to all samples. Frequency of activated cells was graphed as a percentage of CD4 T cells in each sample. Paired t-tests were used to determine statistical significance.

[4] = moDC treated with R848 + 22:0 LPC

Structure (SMILES): CCCCCCCCCCCCCCCCCCCCCC(=O)OC[C@@H](O)COP(=O)([O-])OCC[N+](C)(C)C [22:0 LYSO PC, 1-behenoyl-2-hydroxy-sn-glycero-3-phosphocholine]
- human PBMC viability (in words) [1]: remain viable
- IL-1beta secretion, effect of 0.45 um filtration (in words) ([2]; filtered vs unfiltered lipid + R848): significantly decreased the IL-1beta secreted by moDC
- IL-1beta secretion (in words) ([2]; methanol or ethanol solvent evaporation with KP407, filtered, target 82.5 uM + R848): further increased
- IL-1beta secretion (in words) ([2]; mixed with KP407 (5% in PBS), 0.45 um filtered, target 82.5 uM + R848): increased IL-1beta secretion
- IL-1beta secretion (in words) ([2]; not incorporated into KP407 micelles, 0.45 um filtered, target 82.5 uM + R848): minimal amounts of IL-1beta
- IL-1beta secretion (in words) ([2]; surfactant formulations left unfiltered + R848): high IL-1beta secretion
- Th2 polarization (Gata3, IL-4) (in words) [3, 4]: minimal Th2 polarization occurred
- Th17 cells (RORg, IL-17) (in words) [3, 4]: not detected
- frequency of polyfunctional Th1 cells (IFN-gamma and TNF-alpha) (in words) ([3]; moDC treated with R848 + 22:0 LPC vs R848 alone): increased in frequency
- frequency of Th1 cells (in words) ([3]; moDC treated with R848 + 22:0 LPC vs R848 alone, 5 days coculture): increased the frequency of Th1 cells
